# Laboratory results as given in patent US9364467B2 (Salix Pharmaceuticals, Ltd, priority 2012, dated 2016).
# Read-outs that look alike come from different tables or passages of the source.
# Experiments:
# Bombesin BB1 = Bombesin BB1 (Homo sapiens, UniProt P28336); assay: Radioligand binding assay, Bombesin BB1; details: CONC. 10 μM, hum
# Protocol: (§1) Methods employed in this study have been adapted from the scientific literature to maximize reliability and reproducibility. Reference standards were run as an integral part of each assay to ensure the validity of the results obtained. Assays were performed under conditions described in the accompanying “Methods” section below. The literature reference(s) for each assay are in the “Literature References” section.
# (§2) Where presented, IC50 values were determined by a non-linear, least squares regression analysis using MathIQ™ (ID Business Solutions Ltd., UK). Where inhibition constants (KI) are presented, the KI values were calculated using the equation of Cheng and Prusoff (Cheng, Y., Prusoff, W. H., Biochem. Pharmacol. 22:3099-3108, 1973) using the observed IC50 of the tested compound, the concentration of radioligand employed in the assay, and the historical values for the KD of the ligand (obtained experimentally at Ricerca Biosciences, LLC). Where presented, the Hill coefficient (nH), defining the slope of the competitive binding curve, was calculated using MathIQ™. […] Where IC50, KI, and/or nH data are presented without Standard Error of the Mean (SEM), data are insufficient to be quantitative, and the values presented (KI, IC50, nH) should be interpreted with caution. […]
# S. aureus = assay: In vitro activity (MIC) against S. aureus strains; details: Staphylococcus aureus
# [1] = target: T1, N-Formyl Peptide Receptor FPR1 (Homo sapiens, UniProt P21462); assay: Radioligand binding assay, N-Formyl Peptide Receptor FPR1; details: CONC. 10 μM, hum
# T1 sequence (P21462 1-350): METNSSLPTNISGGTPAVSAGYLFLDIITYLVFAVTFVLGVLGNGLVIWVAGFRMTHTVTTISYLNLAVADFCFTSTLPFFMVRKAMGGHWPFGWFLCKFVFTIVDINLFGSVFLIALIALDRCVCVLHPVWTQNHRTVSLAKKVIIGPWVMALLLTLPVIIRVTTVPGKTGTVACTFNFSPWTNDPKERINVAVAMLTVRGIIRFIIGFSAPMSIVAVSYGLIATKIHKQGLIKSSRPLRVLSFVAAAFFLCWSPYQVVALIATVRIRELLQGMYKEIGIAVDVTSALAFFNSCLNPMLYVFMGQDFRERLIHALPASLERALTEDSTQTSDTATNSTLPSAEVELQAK
# Protocol: as §1, §2
# [2] = test system: Enterococcus spp. strains; assay: In vitro activity (MIC) against Enterococcus spp. strains
# S. haemolyticus = assay: In vitro activity (MIC) against S. haemolyticus strains; details: Staphylococcus haemolyticus
# S. epidermidis = assay: In vitro activity (MIC) against S. epidermidis strains
# [3] = Enterococcus, read-out: Mode (MIC), Enterococcus spp. strains
# Chain of Bombesin BB1 (P28336 whole entry): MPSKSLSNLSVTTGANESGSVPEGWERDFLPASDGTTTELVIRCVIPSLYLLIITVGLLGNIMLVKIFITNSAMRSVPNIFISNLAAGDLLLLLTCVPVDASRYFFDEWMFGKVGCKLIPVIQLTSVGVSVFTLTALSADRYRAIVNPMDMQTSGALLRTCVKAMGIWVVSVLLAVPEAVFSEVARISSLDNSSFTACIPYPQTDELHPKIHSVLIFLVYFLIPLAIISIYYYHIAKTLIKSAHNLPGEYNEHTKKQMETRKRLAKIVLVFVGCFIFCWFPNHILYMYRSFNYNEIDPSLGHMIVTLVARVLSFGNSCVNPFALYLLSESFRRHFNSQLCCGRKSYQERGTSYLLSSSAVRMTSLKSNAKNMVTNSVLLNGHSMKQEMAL
compound,measurement,setting,value
COC1/C=C/O[C@@]2(C)Oc3c(C)c(O)c4c(O)c(c5c(c4c3C2=O)NC2C=C(C)C=CN52)NC(=O)/C(C)=C\C=C\C(C)C(O)C(C)C(O)C(C)C(O)C1C (stereo partly shown) [25-desacetyl rifaximin],inhibition at 10 µM,Bombesin BB1,> 50%
same,MIC,S. aureus; strain ATCC S. aureus 29213,0.5 µg/mL
same,MIC,S. aureus; strain S. aureus 215,16 µg/mL
same,MIC,S. aureus; strain S. aureus 234,2 µg/mL
same,MIC,S. aureus; strain S. aureus 236,16 µg/mL
same,MIC,S. aureus; strain S. aureus 237,2 µg/mL
same,MIC,S. aureus; strain S. aureus 238,0.25 µg/mL
same,MIC,S. aureus; strain S. aureus 246,2 µg/mL
same,MIC,S. aureus; strain S. aureus 252,4 µg/mL
same,MIC,S. aureus; strain S. aureus 253,1 µg/mL
same,MIC,S. aureus; strain S. aureus 267,16 µg/mL
same,MIC,S. aureus; strain S. aureus 272,2 µg/mL
same,MIC,S. aureus; strain S. aureus 279,0.25 µg/mL
same,MIC,S. aureus; strain S. aureus 327,4 µg/mL
same,MIC,S. aureus; strain S. aureus 328,2 µg/mL
same,MIC,S. aureus; strain S. aureus 329,4 µg/mL
same,MIC,S. aureus; strain S. aureus 339,16 µg/mL
same,MIC,S. aureus; strain S. aureus 345,2 µg/mL
same,MIC,S. aureus; strain S. aureus 355,2 µg/mL
same,MIC,S. aureus; strain S. aureus 406,> 16 µg/mL
same,MIC,S. aureus; strain S. aureus 408,2 µg/mL
same,MIC,S. aureus; strain S. aureus 409,1 µg/mL
same,MIC,S. aureus; strain S. aureus 416,2 µg/mL
same,MIC,S. aureus; strain S. aureus 425,> 16 µg/mL
same,MIC,S. aureus; strain S. aureus 436,2 µg/mL
same,MIC,S. aureus; strain S. aureus 475,4 µg/mL
same,inhibition at 10 µM,[1],> 50%
same,MIC,[2]; ATCC E. faecalis 29212,16 µg/mL
same,MIC,[2]; E. faecalis 181,> 16 µg/mL
same,MIC,[2]; E. faecalis 186,4 µg/mL
same,MIC,[2]; E. faecalis 187,4 µg/mL
same,MIC,[2]; E. faecalis 193,4 µg/mL
same,MIC,[2]; E. faecalis 194,> 16 µg/mL
same,MIC,[2]; E. faecalis 200,> 16 µg/mL
same,MIC,[2]; E. faecalis 204,4 µg/mL
same,MIC,[2]; E. faecalis 205,> 16 µg/mL
same,MIC,[2]; E. faecalis 210,4 µg/mL
same,MIC,[2]; E. faecalis 227,> 16 µg/mL
same,MIC,[2]; E. faecalis 228,4 µg/mL
same,MIC,[2]; E. faecalis 232,4 µg/mL
same,MIC,[2]; E. faecalis 235,> 16 µg/mL
same,MIC,[2]; E. faecalis 237,4 µg/mL
same,MIC,[2]; E. faecalis 239,> 16 µg/mL
same,MIC,[2]; E. faecalis 242,> 16 µg/mL
same,MIC,[2]; E. faecalis 243,> 16 µg/mL
same,MIC,[2]; E. faecalis 245,> 16 µg/mL
same,MIC,[2]; E. faecalis 249,4 µg/mL
same,MIC,[2]; E. faecalis 250,> 16 µg/mL
same,MIC,[2]; E. faecalis 251,> 16 µg/mL
same,MIC,[2]; E. faecalis 255,4 µg/mL
same,MIC,[2]; E. faecium 8,4 µg/mL
same,MIC,[2]; E. faecium 13,4 µg/mL
same,MIC,[2]; E. faecium 174,> 16 µg/mL
same,MIC,[2]; E. faecium 185,> 16 µg/mL
same,MIC,[2]; E. faecium 188,> 16 µg/mL
same,MIC,[2]; E. faecium 189,8 µg/mL
same,MIC,[2]; E. faecium 190,> 16 µg/mL
same,MIC,[2]; E. faecium 191,> 16 µg/mL
same,MIC,[2]; E. faecium 192,8 µg/mL
same,MIC,[2]; E. faecium 198,> 16 µg/mL
same,MIC,[2]; E. faecium 199,> 16 µg/mL
same,MIC,[2]; E. faecium 201,> 16 µg/mL
same,MIC,[2]; E. faecium 203,8 µg/mL
same,MIC,[2]; E. faecium 207,> 16 µg/mL
same,MIC,[2]; E. faecium 208,4 µg/mL
same,MIC,[2]; E. faecium 209,> 16 µg/mL
same,MIC,[2]; E. faecium 212,> 16 µg/mL
same,MIC,[2]; E. faecium 215,> 16 µg/mL
same,MIC,[2]; E. faecium 217,4 µg/mL
same,MIC,[2]; E. faecium 221,> 16 µg/mL
same,MIC,[2]; E. faecium 222,> 16 µg/mL
same,MIC,[2]; E. faecium 223,> 16 µg/mL
same,MIC,[2]; E. faecium 225,> 16 µg/mL
same,MIC,[2]; E. faecium 229,8 µg/mL
same,MIC,[2]; E. faecium 230,4 µg/mL
same,MIC,[2]; E. faecium 231,> 16 µg/mL
same,MIC,[2]; E. faecium 236,4 µg/mL
same,MIC,[2]; E. faecium 238,> 16 µg/mL
same,MIC,[2]; E. faecium 240,> 16 µg/mL
same,MIC,[2]; E. faecium 248,> 16 µg/mL
same,MIC50,[2]; Enterococcus,> 16 µg/mL
same,MIC90,[2]; Enterococcus,> 16 µg/mL
same,MIC,[2]; [3],> 16 µg/mL
same,MIC,S. haemolyticus; strain S. haemolyticus 243,0.5 µg/mL
same,MIC,S. haemolyticus; strain S. haemolyticus 276,1 µg/mL
same,MIC,S. haemolyticus; strain S. haemolyticus 955,1 µg/mL
same,MIC,S. haemolyticus; strain S. haemolyticus 982,0.5 µg/mL
same,MIC,S. epidermidis; Staphylococcus epidermidis,0.12 µg/mL
same,MIC,S. epidermidis; strain S. epidermidis 354,0.12 µg/mL
"CO[C@H]1/C=C/O[C@@]2(C)Oc3c(C)c(O)c4c(O)c(c5c(nc6cc(C)ccn65)c4c3C2=O)NC(=O)/C(C)=C\C=C\[C@H](C)[C@H](O)[C@@H](C)[C@@H](O)[C@@H](C)[C@H](OC(C)=O)[C@@H]1C [Rifaximin, reference compound]",inhibition at 10 µM,Bombesin BB1,< 50%
same,MIC,S. aureus; strain ATCC S. aureus 29213,0.015 µg/mL
same,MIC,S. aureus; strain S. aureus 215,1 µg/mL
same,MIC,S. aureus; strain S. aureus 234,0.25 µg/mL
same,MIC,S. aureus; strain S. aureus 236,1 µg/mL
same,MIC,S. aureus; strain S. aureus 237,0.06 µg/mL
same,MIC,S. aureus; strain S. aureus 238,0.03 µg/mL
same,MIC,S. aureus; strain S. aureus 246,0.5 µg/mL
same,MIC,S. aureus; strain S. aureus 252,0.5 µg/mL
same,MIC,S. aureus; strain S. aureus 253,0.12 µg/mL
same,MIC,S. aureus; strain S. aureus 267,1 µg/mL
same,MIC,S. aureus; strain S. aureus 272,0.25 µg/mL
same,MIC,S. aureus; strain S. aureus 279,0.03 µg/mL
same,MIC,S. aureus; strain S. aureus 327,1 µg/mL
same,MIC,S. aureus; strain S. aureus 328,0.5 µg/mL
same,MIC,S. aureus; strain S. aureus 329,1 µg/mL
same,MIC,S. aureus; strain S. aureus 339,1 µg/mL
same,MIC,S. aureus; strain S. aureus 345,0.25 µg/mL
same,MIC,S. aureus; strain S. aureus 355,0.5 µg/mL
same,MIC,S. aureus; strain S. aureus 406,0.5 µg/mL
same,MIC,S. aureus; strain S. aureus 408,0.25 µg/mL
same,MIC,S. aureus; strain S. aureus 409,0.12 µg/mL
same,MIC,S. aureus; strain S. aureus 416,0.5 µg/mL
same,MIC,S. aureus; strain S. aureus 425,0.5 µg/mL
same,MIC,S. aureus; strain S. aureus 436,0.06 µg/mL
same,MIC,S. aureus; strain S. aureus 475,0.5 µg/mL
same,inhibition at 10 µM,[1],< 50%
same,MIC,[2]; ATCC E. faecalis 29212,4 µg/mL
same,MIC,[2]; E. faecalis 181,4 µg/mL
same,MIC,[2]; E. faecalis 186,4 µg/mL
same,MIC,[2]; E. faecalis 187,4 µg/mL
same,MIC,[2]; E. faecalis 193,4 µg/mL
same,MIC,[2]; E. faecalis 194,4 µg/mL
same,MIC,[2]; E. faecalis 200,> 16 µg/mL
same,MIC,[2]; E. faecalis 204,4 µg/mL
same,MIC,[2]; E. faecalis 205,4 µg/mL
same,MIC,[2]; E. faecalis 210,4 µg/mL
same,MIC,[2]; E. faecalis 227,> 16 µg/mL
same,MIC,[2]; E. faecalis 228,4 µg/mL
same,MIC,[2]; E. faecalis 232,4 µg/mL
same,MIC,[2]; E. faecalis 235,16 µg/mL
same,MIC,[2]; E. faecalis 237,4 µg/mL
same,MIC,[2]; E. faecalis 239,8 µg/mL
same,MIC,[2]; E. faecalis 242,> 16 µg/mL
same,MIC,[2]; E. faecalis 243,16 µg/mL
same,MIC,[2]; E. faecalis 245,> 16 µg/mL
same,MIC,[2]; E. faecalis 249,4 µg/mL
same,MIC,[2]; E. faecalis 250,4 µg/mL
same,MIC,[2]; E. faecalis 251,8 µg/mL
same,MIC,[2]; E. faecalis 255,4 µg/mL
same,MIC,[2]; E. faecium 8,4 µg/mL
same,MIC,[2]; E. faecium 13,4 µg/mL
same,MIC,[2]; E. faecium 174,8 µg/mL
same,MIC,[2]; E. faecium 185,> 16 µg/mL
same,MIC,[2]; E. faecium 188,8 µg/mL
same,MIC,[2]; E. faecium 189,4 µg/mL
same,MIC,[2]; E. faecium 190,16 µg/mL
same,MIC,[2]; E. faecium 191,> 16 µg/mL
same,MIC,[2]; E. faecium 192,2 µg/mL
same,MIC,[2]; E. faecium 198,16 µg/mL
same,MIC,[2]; E. faecium 199,8 µg/mL
same,MIC,[2]; E. faecium 201,16 µg/mL
same,MIC,[2]; E. faecium 203,4 µg/mL
same,MIC,[2]; E. faecium 207,4 µg/mL
same,MIC,[2]; E. faecium 208,2 µg/mL
same,MIC,[2]; E. faecium 209,16 µg/mL
same,MIC,[2]; E. faecium 212,> 16 µg/mL
same,MIC,[2]; E. faecium 215,> 16 µg/mL
same,MIC,[2]; E. faecium 217,8 µg/mL
same,MIC,[2]; E. faecium 221,8 µg/mL
same,MIC,[2]; E. faecium 222,> 16 µg/mL
same,MIC,[2]; E. faecium 223,> 16 µg/mL
same,MIC,[2]; E. faecium 225,4 µg/mL
same,MIC,[2]; E. faecium 229,2 µg/mL
same,MIC,[2]; E. faecium 230,8 µg/mL
same,MIC,[2]; E. faecium 231,16 µg/mL
same,MIC,[2]; E. faecium 236,2 µg/mL
same,MIC,[2]; E. faecium 238,16 µg/mL
same,MIC,[2]; E. faecium 240,> 16 µg/mL
same,MIC,[2]; E. faecium 248,> 16 µg/mL
same,MIC50,[2]; Enterococcus,8 µg/mL
same,MIC90,[2]; Enterococcus,> 16 µg/mL
same,MIC,[2]; [3],4 µg/mL
same,MIC,S. haemolyticus; strain S. haemolyticus 243,0.06 µg/mL
same,MIC,S. haemolyticus; strain S. haemolyticus 276,0.12 µg/mL
same,MIC,S. haemolyticus; strain S. haemolyticus 955,0.12 µg/mL
same,MIC,S. haemolyticus; strain S. haemolyticus 982,0.06 µg/mL
same,MIC,S. epidermidis; Staphylococcus epidermidis,0.06 µg/mL
same,MIC,S. epidermidis; strain S. epidermidis 354,0.06 µg/mL
